Reference: patent US12365686B2, “Compound as porcupine inhibitor and use thereof” (JIANGSU KANION PHARMACEUTICAL CO., LTD., priority 2019, dated 2025)
Structures can show the parent of a compound that is named as a salt.

How the values were obtained:
[1] = tested on: STF reporter gene for WNT pathway (Porcupine of the Wnt signaling pathway); test: Inhibitory activity on Super-Top-Flash (STF) reporter gene; type: cell-based; settings: HEK293 STF and L wnt3A cells 1:1, 24 hours, Bright-Glo
Procedure: 1. Assay of Inhibitory Activity on Super-Top-Flash (STF) Reporter Gene
HEK293 STF and L wnt3A cells were planted at a ratio of 1:1 in a white 96-well plate with 80 μL of cell suspension per well, which contained 20,000 HEK293 STF cells and 20,000 L wnt3A cells. The cell plate was placed in a carbon dioxide incubator for culture overnight.
The assay compound was serially diluted 5-fold with a discharge gun to the 8th concentration, that is, from 400 μM to 5.12 nM, in duplicate. 78 μL of medium was added to the middle plate, and then 2 μL of the serially diluted compound was transferred to each well of the middle plate according to the corresponding position. After mixing, 20 μL of the mixture was transferred to each well of the cell plate. The cell plate was placed in a carbon dioxide incubator for 24 hours.
100 μL of Promega Bright-Glo reagent was added to each well of the cell plate, and the cell plate was incubated at room temperature for 10 minutes to stabilize the luminescence signal. A multi-label analyzer was used to read results.
The original data of the multi-label analyzer was used for calculation, and the value of IC50 can be obtained by curve fitting. Table 1 provides data of the inhibitory activity of the compounds of the present disclosure on the Wnt signaling pathway.

[2] = tested on: Capan-2 cells; test: Anti-proliferative activity on Capan-2 cells; type: cell-based; settings: Homo sapiens, Capan-2, 120 h; 5 days, CellTiter-Glo
Procedure: 2. Assay of Anti-Proliferative Activity on Capan-2 Cells
Capan-2 cells were planted in a white 96-well plate with 80 μL of cell suspension per well, which contained 5000 Capan-2 cells. The cell plate was placed in a carbon dioxide incubator for culture overnight.
The assay compound was serially diluted 3-fold with a discharge gun to the 9th concentration, that is, from 200 μM to 30 nM, in duplicate. 78 μL of medium was added to the middle plate, and then 2 μL of the serially diluted compound was transferred to each well of the middle plate according to the corresponding position. After mixing, 20 μL of the mixture was transferred to each well of the cell plate. The cell plate was incubated in a carbon dioxide incubator for 5 days. Another cell plate was prepared, and read on the day of drug addition. The signal value was used as the maximum value (The value of Max in the equation below) in data analysis. 25 μL of chemiluminescence detection reagent for cell viability was added to each well of this cell plate, and this cell plate was incubated at room temperature for 10 minutes to stabilize the luminescence signal. A multi-label analyzer was used to read results.
After the cell plate was cultured for 5 days, 25 μL of Promega CellTiter-Glo reagent was added to each well of the cell plate. The cell plate was incubated at room temperature for 10 minutes to stabilize the luminescence signal. A multi-label analyzer was used to read results.
The value of IC50 can be obtained by curve fitting. Table 2 provides the inhibitory activity of the compounds of the present disclosure on Capan-2 cell proliferation.

[3] = tested on: human pancreatic cancer Capan-2 xenograft tumor; test: In vivo drug efficacy on Capan-2 transplanted tumor in nude mice; settings: BID, Capan-2 Xenograft model
Procedure: 3. Assay of In Vivo Drug Efficacy on Capan-2 Transplanted Tumor in Nude Mice
Capan-2 cells were cultured in McCoy's 5A medium, containing 10% fetal bovine serum FBS, in a 37° C. incubator with 5% CO2. Tumor cells were collected after passaging and growing to a suitable concentration and during the logarithmic growth phase. The cells resuspended in McCoy's 5A medium were counted and the cell suspension was adjusted to a concentration of 2×10^7/mL for inoculation.
Establishment of human pancreatic cancer Capan-2 xenograft tumor. Cells were collected and the concentration was adjusted to 2×10^7 (resuspend with McCoy's 5A medium to a cell suspension containing 50% Martigel). Under aseptic conditions, 0.1 mL of tumor cells was injected subcutaneously into the right back of the mouse, and the number of cells inoculated per mouse was 2×10^6. After the tumor was grown to a certain size, digital vernier calipers was used to measure the length (a) and width (b) of the tumor, and the tumor volume was calculated. The calculation formula of tumor volume (TV) was: TV=a×b^2/2.
Capan-2 tumor cells were inoculated. When the tumor was grown to about 150 cubic millimeters, mice were divided into groups with 6 mice in each group. The day of grouping was regarded as day 0, and the drug was administered on the day of grouping. During the assay, the animal's body weight and tumor size were measured twice a week, and the animal's clinical symptoms were observed and recorded every day. For each administration, the most recently weighed animal body weight was referred to.
The evaluation index of anti-tumor activity is relative tumor proliferation rate T/C (%), wherein T/C (%)>40% means ineffective, and T/C (%)<40% and statistically P<0.05 means effective. The calculation formula of T/C (%) is: T/C (%)=(TRTV/CRTV)×100%. TRTV is relative tumor volume of the treatment group, and CRTV is relative tumor volume of the negative control group. TGI (%)^b tumor inhibition rate=(average tumor volume or weight of negative control group-average tumor volume or weight of administration group)/average tumor volume or weight of negative control group×100%. TGI (%)^a=[(1−(average tumor volume of a certain administration group at the time of measurement-average tumor volume of the administration group at the beginning of the administration))/(average tumor volume of vehicle control group at the time of measurement-average tumor volume of the vehicle control group at the beginning of the administration)]×100%.

[4] = Pharmacokinetic evaluation of compounds in mice; type: in vivo; settings: mouse, plasma, male CD-1 mice; for clearance / bioavailability / half-life / Vd: IV 0.5 mg/kg; for bioavailability / AUC(0-t): PO 2.5 mg/kg; for half-life: read-out: T1/2 IV (converted); for Vd: read-out: Vdss; for AUC(0-t): read-out: AUC0-last PO; for Cmax: single dose, route not stated (IV 0.5 mg/kg, PO 2.5 mg/kg)
Procedure: Assay 4: Pharmacokinetic Evaluation of Compounds
Assay purpose: Pharmacokinetics of compounds in […] mice was assayed.
CD-1 mice (male, 7-9 weeks old, Shanghai Slack)
The pharmacokinetic characteristics of rodents after intravenous (IV) and oral (PO) administration of compounds were assayed by standard protocols. In the assay, mice were given a single intravenous injection and oral administration. The vehicle for intravenous injection was water. The oral vehicle was 0.5% hypromellose. Four male CD-1 mice were used in this project. Two mice were administered intravenously at a dose of 0.5 mg/kg, and plasma samples were collected at 0 h (before administration) and 0.083, 0.25, 0.5, 1, 2, 4, 8, and 24 h after administration. The other two mice were orally administered by gavage at a dose of 2.5 mg/kg, and plasma samples were collected at 0 h (before administration) and 0.25, 0.5, 1, 2, 4, 8, and 24 h after administration. Whole blood samples within 24 hours were collected, and centrifuged at 3000 g for 15 minutes. The supernatant was separated to obtain a plasma sample, and protein was precipitated by adding 4 times volume of acetonitrile solution containing internal standard. The mixture was centrifuged to obtain a supernatant, and an equal volume of water was added to the obtained supernatant. The mixture was then centrifuged to obtain a supernatant for injection. The blood drug concentration was quantitatively analyzed by LC-MS/MS analysis method, and pharmacokinetic parameters were calculated, such as peak concentration (Cmax), clearance rate (CL), half-life (T1/2), […] (Vdss), area under the drug-time curve (AUC0-last), and bioavailability (F), etc.
The assay results are shown in Table 4: The compounds of the present disclosure have good pharmacokinetic properties.

Row | IC50 [1] [nM] | clearance [4] [mL/min/kg] | bioavailability [4] [%] | half-life [4] [h] | Vd [4] [L/kg] | AUC(0-t) [4] [µM·h] | Cmax [4] [nM] | SMILES | IC50 [2] [nM] | T/C % ([3]; 5 mg/Kg, 31 days) [%] | TGI % ([3]; 5 mg/Kg, 31 days) [%] | T/C % ([3]; 2.5 mg/Kg) [%] | TGI % ([3]; 2.5 mg/Kg) [%]
1 | 0.12 | 5.05 | 76.3 | 2.23 | 0.633 | 16.5 | 3030 | Cc1cc(-c2ncc(CNc3nccn4c(-c5ccccc5)cnc34)cc2C)ccn1 [Compound 1] | 0.71 | 21.58 | 96.7 |  | 
2 | 0.52 | 5.75 | 98.8 | 2.5 | 0.666 | 16.2 | 2580 | Cc1cc(-c2ncc(CNc3nccn4c(-c5cc(F)cc(F)c5)cnc34)cc2C)ccn1 [Compound 30 (hydrochloride)] | 0.71 | 25.31 | 84.93 | 40.18 | 66.67
